Data as given in patent US20020107404A1, “Sulfur-containing indirubin derivatives, their production and use” (Schering AG, priority 2000, published 2002).

Assays:
[1] = biological target: T1, CDK2/CycE (Homo sapiens, UniProt P24941); assay: CDK2/CycE kinase assay; assay type: biochemical; conditions: recombinant CDK2/CycE, histone IIIS substrate, 0.5 μm ATP
T1 construct: GST; purchased Dr. Dieter Marmé, Klinik für Tumorbiologie, Freiburg (external academic supplier); host or cells: baculovirus-infected Sf9 insect cells
Method: Recombinant CDK2- and CycE-GST-fusion proteins, purified from baculovirus-infected insect cells (Sf9), were obtained by Dr. Dieter Marmé, Klinik für Tumorbiologie [Clinic for Tumor Biology], Freiburg. Histone IIIS, which was used as a kinase substrate, was purchased by the Sigma Company.
CDK2/CycE (50 ng/measuring point) was incubated for 15 minutes at 22° C. in the presence of various concentrations of test substances (0 μm, as well as within the range of 0.01-100 μm) in assay buffer [50 mmol of tris/HCl pH 8.0, 10 mmol of MgCl2, 0.1 mmol of Na ortho-vanadate, 1.0 mmol of dithiothreitol, 0.5 μm of adenosine triphosphate (ATP), 10 μg/measuring point of histone IIIS, 0.2 μCi/measuring point of ^33P-gamma ATP, 0.05% NP40, 12.5% dimethyl sulfoxide]. The reaction was stopped by adding EDTA solution (250 mmol, pH 8.0, 14 μl/measuring point).
From each reaction batch, 10 μl was applied to P30 filter strips (Wallac Company), and non-incorporated ^33P-ATP was removed by subjecting the filter strips to three washing cycles for 10 minutes each in 0.5% phosphoric acid. After the filter strips were dried for one hour at 70° C., the filter strips were covered with scintillator strips (MeltiLex™ A, Wallac Company) and baked for one hour at 90° C. The amount of incorporated ^33p (substrate phosphorylation) was determined by scintillation measurement in a gamma-radiation measuring device (Wallac).

[2] = test system: HCT116; assay: Proliferation assay, HCT116; assay type: cell-based; conditions: Homo sapiens, HCT-116, 96 h; comparison table; 4 days incubation, crystal violet
Method: (§1) Cultivated human tumor cells (as indicated) were flattened out at a density of 5000 cells/measuring point in a 96-well multititer plate in 200 μl of the corresponding growth medium. After 24 hours, the cells of one plate (zero-point plate) were colored with crystal violet (see below), while the medium of the other plates was replaced by fresh culture medium (200 μl), to which the test substances were added in various concentrations (0 μm, as well as in the range of 0.01-30 μm; the final concentration of the solvent dimethyl sulfoxide was 0.5%. The cells were incubated for 4 days in the presence of test substances. The cell proliferation was determined by coloring the cells with crystal violet: the cells were fixed by adding 20 μl/measuring point of a 11% glutaric aldehyde solution for 15 minutes at room temperature. After three washing cycles of the fixed cells with water, the plates were dried at room temperature. The cells were colored by adding 100 μl/measuring point of a 0.1% crystal violet solution (pH was set at 3 by adding acetic acid). […] The extinction was determined by photometry at a wavelength of 595 nm. The change of cell growth, in percent, was calculated by standardization of the measured values to the extinction values of the zero-point plate (=0%) and the extinction of the untreated (0 μm) cells (=100%).

[3] = test system: MCF-7; assay: Proliferation assay, MCF-7; assay type: cell-based, human; conditions: MCF7, 96 h, 4 days incubation, crystal violet
Method: Cultivated human tumor cells (as indicated) were flattened out at a density of 5000 cells/measuring point in a 96-well multititer plate in 200 μl of the corresponding growth medium. After 24 hours, the cells of one plate (zero-point plate) were colored with crystal violet (see below), while the medium of the other plates was replaced by fresh culture medium (200 μl), to which the test substances were added in various concentrations (0 μm, as well as in the range of 0.01-30 μm; the final concentration of the solvent dimethyl sulfoxide was 0.5%. The cells were incubated for 4 days in the presence of test substances. The cell proliferation was determined by coloring the cells with crystal violet: the cells were fixed by adding 20 μl/measuring point of a 11% glutaric aldehyde solution for 15 minutes at room temperature. After three washing cycles of the fixed cells with water, the plates were dried at room temperature. The cells were colored by adding 100 μl/measuring point of a 0.1% crystal violet solution (pH was set at 3 by adding acetic acid). After three washing cycles of the colored cells with water, the plates were dried at room temperature. The dye was dissolved by adding 100 μl/measuring point of a 10% acetic acid solution. The extinction was determined by photometry at a wavelength of 595 nm. The change of cell growth, in percent, was calculated by standardization of the measured values to the extinction values of the zero-point plate (=0%) and the extinction of the untreated (0 μm) cells (=100%).

[4] = test system: H460; assay: Proliferation assay, H460; assay type: cell-based; conditions: Homo sapiens, NCI-H460, 96 h; comparison table; 4 days incubation, crystal violet
Method: as §1

[5] = test system: DU145; assay: Proliferation assay, DU145; assay type: cell-based; conditions: Homo sapiens, DU-145, 96 h; comparison table; 4 days incubation, crystal violet
Method: as §1

Row | IC50 [1] | IC50 [2] | IC50 ([3]; Homo sapiens, comparison table) | IC50 [4] | melting point | IC50 [5] | IC50 ([1]; comparison table) | IC50 ([3]; human tumor cells) | SMILES
1 | 5000 nM |  |  |  |  |  |  |  | CSc1ccc2c(c1)/C(=C1/Nc3ccc(OCc4ccccc4)cc3C1=O)C(=O)N2 [Example 5.1]
2 |  | 2500 nM | 1500 nM | 4000 nM | 284 °C | 6000 nM | 80 nM |  | C[S+]([O-])c1ccc2c(c1)/C(=C1/Nc3ccccc3C1=O)C(=O)N2 (stereo not drawn) [Example 2.0, 5-Methylsulfinyl-indirubin]
3 |  | 600 nM | 700 nM | 1000 nM | 156 °C | 1000 nM | 20 nM |  | CSc1ccc2c(c1)/C(=C1/Nc3ccccc3/C1=N\O)C(=O)N2 [Example 4.0, 5-Methylsulfanyl-3′,-hydroyimino-indirubin]
4 |  |  | 500 nM |  | > 210 °C |  | 300 nM |  | CSc1ccc2c(c1)/C(=C1/Nc3ccccc3C1=O)C(=O)N2 [Example 1.0, 5-Methylsulfanyl-indirubin]
5 | 110 nM |  |  |  |  |  |  | 5000 nM | CSc1ccc2c(c1)/C(=C1/Nc3ccc(NC(C)=O)cc3C1=O)C(=O)N2 [Example 5.0, 5-Methysulfanyl-5′-N-acetylindirubin]
